{"source": "patent US9983218B2", "about": "“Indole and indoline derivatives and methods of use thereof” (AbbVie Inc., priority 2008, dated 2018)", "key": {"[1]": {"tested_on": "primary postnatal (P0) cortical cells", "test": "Neurite outgrowth assay (Aβ1-42-induced reduction of neurite outgrowth, high content microscopy)", "type": "cell-based, rat", "conditions": "for Emax: Rattus norvegicus, read-out: Maximum Effect (of % 300 nM Dimebolin)", "protocol": "In addition to PC12 cells, other cellular model systems may also be used. Rat cortical cells were cultured and prepared for high content microscopy analysis as previously described (Hu, M.; Schurdak, M. E.; et al. High content screen microscopy analysis of Aβ1-42-induced neurite outgrowth reduction in rat primary cortical neurons: Neuroprotective effects of α7 neuronal nicotinic acetylcholine receptor ligands. Brain Res. 2007, 1151, 227-235.). Briefly, cortical cell cultures were plated at density of 5×10^5 cells/mL onto poly-D-lysine coated 96-well plates and maintained in a cell incubator at 37° C. with 5% CO2. Experiments were performed using 6-7 day-old cortical cell cultures by treating with test compounds. In some experiments, the effect of test compounds on reversing Aβ toxicity were also measured (Hu, M.; Schurdak, M. E.; et al. High content screen microscopy analysis of Aβ1-42-induced neurite outgrowth reduction in rat primary cortical neurons: Neuroprotective effects of α7 neuronal nicotinic acetylcholine receptor ligands. Brain Res. 2007, 1151, 227-235.). For assessment of neuroprotective effects, cells were first pretreated with test compounds for about 5 hours. Medium was then replaced with the medium containing freshly prepared about 5 μM Aβ1-42 peptide in the absence or presence of the test compounds for 3 days. The untreated group contained the same percentage of vehicle (DMSO) as in the treatment groups. Cells were fixed with approximately 4% paraformaldehyde containing 0.5% Hoechst 33342 for about 15 minutes, followed by three washes using PBS (pH 7.4) and blocked with 10% donkey serum in PBS for 1 hour at room temperature. The cells were then incubated overnight at about 4° C. with mouse anti-tubulin monoclonal antibody (1:100) for staining neurons and rabbit anti-GFAP (1:1000) for staining glia. In the next day, cells were incubated with FITC-labeled anti-mouse and TRITC-labeled anti-rabbit antibodies (1:1000) for about 1 hour at room temperature. After fixing and staining the cells, nuclei (360/400 nm excitation and 465/300 nm emission filters), neuron (475/350 nm excitation and 535/400 nm emission filters) and glial cell (535 nm excitation and 610 nm emission filters) images were collected using the ImageExpress Micro automatic fluorescent microscopy system (Molecular Devices, Sunnyvale, Calif.) employing a Nikon 10× Plan Fluor objective and Cool Snap HQ CCD camera. The Neurite Outgrowth module in the MetaMorph Imaging software was used to automatically count total cell number, number of neuron cells, and the extent of neurite outgrowth.\nIn the graph of FIG. 2, 100% response was the response observed for untreated cells. Exposure to Aβ1-42 produced a decrease in neurite outgrowth. Treatment of cells with compounds prior to and concomitantly with Aβ1-42 gave a neuroprotective effect with neurite outgrowth maintained or enhanced relative to untreated cells."}, "[2]": {"tested_on": "SK-N-SH human neuroblastoma cells", "test": "Serum deprivation/JC-1 mitochondrial membrane potential (MMP) assay", "type": "cell-based", "conditions": "for Emax: SK-N-SH, read-out: JC-1 max %; for EC50: SK-N-SH cells, serum deprivation ~18 hours, JC-1 ratio normalized to peak value for 10 μM dimebolin, single curve fit to mean data of n=2-3, read-out: EC50", "procedure,_shortened": "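Cells were serum-deprived ~18 h in MEM with or without compound (DMSO ≤1%), then stained with JC-1 for 35 min at 37° C. The red/green fluorescence ratio (560/595 vs 485/535 nm) was normalized to the peak response of 10 μM dimebolin. EC50 came from one curve fit to mean data (n=2-3, duplicates).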"}, "[3]": {"conditions": "maximum response relative to 300 nM dimebolin, at the concentration given"}, "[4]": {"conditions": "Homo sapiens, percent maximal intensity in JC-1 ratio normalized to 10 μM dimebolin"}}, "note": "Read-outs that look alike come from different tables or passages of the source."}
{"smiles": "Cc1ccc2c(c1)[C@H]1CN3CCC(CC3)[C@H]1N2CCc1ccc(C)nc1", "note": "(relative stereo) [Example 158, (5aR*,10bS*)-9-methyl-6-[2-(6-methylpyridin-3-yl)ethyl]-3,4,5,5a,6,10b-hexahydro-1H-2,5-ethanoazepino[4,3-b]indole]", "values": [{"measurement": "Emax", "setting": "[1]; [3]", "value": 110, "unit": "%"}]}
{"smiles": "Cc1ccc2c(c1)c1c(n2CCc2ccc(C)nc2)C[C@H]2CC[C@@H]1N2", "note": "(single isomer, unassigned) [Example 6]", "values": [{"measurement": "Emax", "setting": "[2]; [4]", "value": 163, "unit": "%"}, {"measurement": "EC50", "setting": "[2]; Homo sapiens", "value": 5.79, "unit": "µM"}, {"measurement": "Emax", "setting": "[1]; [3]", "value": 124, "unit": "%"}]}
{"smiles": "Cc1ccc2c(c1)c1c(n2CCc2cccc(C(F)(F)F)c2)C[C@H]2CCC[C@@H]1N2", "note": "(single isomer, unassigned) [Example 133]", "values": [{"measurement": "Emax", "setting": "[1]; [3]", "value": 108, "unit": "%"}]}
{"smiles": "c1cnc2ccc(-n3c4c(c5ccccc53)[C@H]3CC[C@@H](C4)N3)cc2c1", "note": "(single isomer, unassigned) [Example 278]", "values": [{"measurement": "Emax", "setting": "[2]; [4]", "value": 189, "unit": "%"}, {"measurement": "EC50", "setting": "[2]; Homo sapiens", "value": 2.71, "unit": "µM"}, {"measurement": "Emax", "setting": "[1]; [3]", "value": 96, "unit": "%"}]}
{"smiles": "c1ccc2c(c1)c1c(n2-c2ccc3ccncc3c2)C[C@H]2CC[C@@H]1N2", "note": "(single isomer, unassigned) [Example 279]", "values": [{"measurement": "Emax", "setting": "[2]; [4]", "value": 209, "unit": "%"}, {"measurement": "EC50", "setting": "[2]; Homo sapiens", "value": 5.49, "unit": "µM"}, {"measurement": "Emax", "setting": "[1]; [3]", "value": 108, "unit": "%"}]}
{"smiles": "c1ccc2c(c1)c1c(n2-c2ccc3ccncc3c2)C[C@@H]2CC[C@H]1N2", "note": "(single isomer, unassigned) [Example 280]", "values": [{"measurement": "Emax", "setting": "[2]; [4]", "value": 201, "unit": "%"}, {"measurement": "EC50", "setting": "[2]; Homo sapiens", "value": 5.25, "unit": "µM"}, {"measurement": "Emax", "setting": "[1]; [3]", "value": 107, "unit": "%"}]}
{"smiles": "Cc1ccc2c(c1)c1c(n2CCc2cnc(C)nc2)C[C@H]2CC[C@@H]1N2C", "note": "[Example 31, (7R,10S)-2,11-dimethyl-5-[2-(2-methylpyrimidin-5-yl)ethyl]-5,6,7,8,9,10-hexahydro-7,10-epiminocyclohepta[b]indole]", "values": [{"measurement": "Emax", "setting": "[2]; [4]", "value": 97, "unit": "%"}, {"measurement": "EC50", "setting": "[2]; Homo sapiens", "value": 6.05, "unit": "µM"}, {"measurement": "Emax", "setting": "[1]; [3]", "value": 96, "unit": "%"}]}
{"smiles": "Cc1ccc2c(c1)c1c(n2CCc2cccc(C(F)(F)F)c2)CC2CCC1N2C", "note": "(stereo not shown) [Example 50, 2,11-dimethyl-5-{2-[3-(trifluoromethyl)phenyl]ethyl}-5,6,7,8,9,10-hexahydro-7,10-epiminocyclohepta[b]indole]", "values": [{"measurement": "Emax", "setting": "[2]; [4]", "value": 175, "unit": "%"}, {"measurement": "EC50", "setting": "[2]; Homo sapiens", "value": 6.45, "unit": "µM"}, {"measurement": "Emax", "setting": "[1]; [3]", "value": 101, "unit": "%"}]}
{"smiles": "Cc1ccc2c(c1)c1c(n2CCc2cccc(C(F)(F)F)c2)C[C@@H]2CCC[C@H]1N2", "note": "[Example 135, (7S,11R)-2-methyl-5-{2-[3-(trifluoromethyl)phenyl]ethyl}-6,7,8,9,10,11-hexahydro-5H-7,11-epiminocycloocta[b]indole]", "values": [{"measurement": "Emax", "setting": "[1]; [3]", "value": 126, "unit": "%"}]}
{"smiles": "Fc1ccc(Cn2c3c(c4cc(F)ccc42)CN2CCC3CC2)cc1", "note": "[Example 165, 9-fluoro-6-(4-fluorobenzyl)-3,4,5,6-tetrahydro-1H-2,5-ethanoazepino[4,3-b]indole]", "values": [{"measurement": "Emax", "setting": "[1]; [3]", "value": 104, "unit": "%"}]}
{"smiles": "Fc1ccc2c(c1)c1c(n2Cc2ccc(Br)cc2)C2CCN(CC2)C1", "note": "[Example 167, 6-(4-bromobenzyl)-9-fluoro-3,4,5,6-tetrahydro-1H-2,5-ethanoazepino[4,3-b]indole]", "values": [{"measurement": "Emax", "setting": "[2]; [4]", "value": 149, "unit": "%"}, {"measurement": "EC50", "setting": "[2]; Homo sapiens", "value": 4.71, "unit": "µM"}, {"measurement": "Emax", "setting": "[1]; [3]", "value": 92, "unit": "%"}]}
{"smiles": "Fc1ccc2c(c1)c1c(n2-c2ccc3ncccc3c2)C2CCN(CC2)C1", "note": "[Example 228, 9-fluoro-6-quinolin-6-yl-3,4,5,6-tetrahydro-1H-2,5-ethanoazepino[4,3-b]indole]", "values": [{"measurement": "Emax", "setting": "[2]; [4]", "value": 263, "unit": "%"}, {"measurement": "EC50", "setting": "[2]; Homo sapiens", "value": 1.73, "unit": "µM"}, {"measurement": "Emax", "setting": "[1]; [3]", "value": 141, "unit": "%"}]}
{"smiles": "Cc1ccc2cc(-n3c4c(c5cc(F)ccc53)CN3CCC4CC3)ccc2n1", "note": "[Example 229, 9-fluoro-6-(2-methylquinolin-6-yl)-3,4,5,6-tetrahydro-1H-2,5-ethanoazepino[4,3-b]indole]", "values": [{"measurement": "Emax", "setting": "[2]; [4]", "value": 282, "unit": "%"}, {"measurement": "EC50", "setting": "[2]; Homo sapiens", "value": 0.7, "unit": "µM"}, {"measurement": "Emax", "setting": "[1]; [3]", "value": 165, "unit": "%"}]}
{"smiles": "O=c1cccnn1-c1ccc(Cn2c3c(c4cc(F)ccc42)CN2CCC3CC2)cn1", "note": "[Example 248, 2-{5-[(9-fluoro-1,3,4,5-tetrahydro-6H-2,5-ethanoazepino[4,3-b]indol-6-yl)methyl]pyridin-2-yl}pyridazin-3(2H)-one]", "values": [{"measurement": "Emax", "setting": "[2]; [4]", "value": 110, "unit": "%"}, {"measurement": "EC50", "setting": "[2]; Homo sapiens", "value": 5.24, "unit": "µM"}, {"measurement": "Emax", "setting": "[1]; [3]", "value": 109, "unit": "%"}]}
{"smiles": "O=c1ccnc2ccc(-n3c4c(c5cc(F)ccc53)CN3CCC4CC3)cn12", "note": "[Example 261, 7-(9-fluoro-1,3,4,5-tetrahydro-6H-2,5-ethanoazepino[4,3-b]indol-6-yl)-4H-pyrido[1,2-a]pyrimidin-4-one]", "values": [{"measurement": "Emax", "setting": "[2]; [4]", "value": 160, "unit": "%"}, {"measurement": "EC50", "setting": "[2]; Homo sapiens", "value": 5.72, "unit": "µM"}, {"measurement": "Emax", "setting": "[1]; [3]", "value": 104, "unit": "%"}]}
{"smiles": "O=c1cccnn1-c1ccc(-n2c3c(c4cc(F)ccc42)CN2CCC3CC2)nc1", "note": "[Example 262, 2-[6-(9-fluoro-1,3,4,5-tetrahydro-6H-2,5-ethanoazepino[4,3-b]indol-6-yl)pyridin-3-yl]pyridazin-3(2H)-one]", "values": [{"measurement": "Emax", "setting": "[2]; [4]", "value": 182, "unit": "%"}, {"measurement": "EC50", "setting": "[2]; Homo sapiens", "value": 8.71, "unit": "µM"}, {"measurement": "Emax", "setting": "[1]; [3]", "value": 99, "unit": "%"}]}
{"smiles": "Fc1ccc2c(c1)c1c(n2-c2cccnc2)C2CCN(CC2)C1", "note": "[Example 264, 9-fluoro-6-(pyridin-3-yl)-3,4,5,6-tetrahydro-1H-2,5-ethanoazepino[4,3-b]indole]", "values": [{"measurement": "Emax", "setting": "[2]; [4]", "value": 107, "unit": "%"}, {"measurement": "EC50", "setting": "[2]; Homo sapiens", "value": 7.8, "unit": "µM"}, {"measurement": "Emax", "setting": "[1]; [3]", "value": 110, "unit": "%"}]}
{"smiles": "O=c1cnc2ccc(-n3c4c(c5ccccc53)CN3CCC4CC3)cc2[nH]1", "note": "[Example 274, 7-(1,3,4,5-tetrahydro-6H-2,5-ethanoazepino[4,3-b]indol-6-yl)quinoxalin-2(1H)-one]", "values": [{"measurement": "Emax", "setting": "[2]; [4]", "value": 235, "unit": "%"}, {"measurement": "EC50", "setting": "[2]; Homo sapiens", "value": 2.27, "unit": "µM"}, {"measurement": "Emax", "setting": "[1]; [3]", "value": 111, "unit": "%"}]}
{"smiles": "O=c1ccnc2ccc(-n3c4c(c5ccccc53)CN3CCC4CC3)cn12", "note": "[Example 277, 7-(1,3,4,5-tetrahydro-6H-2,5-ethanoazepino[4,3-b]indol-6-yl)-4H-pyrido[1,2-a]pyrimidin-4-one]", "values": [{"measurement": "Emax", "setting": "[2]; [4]", "value": 190, "unit": "%"}, {"measurement": "EC50", "setting": "[2]; Homo sapiens", "value": 2.4, "unit": "µM"}, {"measurement": "Emax", "setting": "[1]; [3]", "value": 91, "unit": "%"}]}
{"smiles": "c1cnc2ccc(-n3c4c(c5ccccc53)[C@@H]3CC[C@H](C4)N3)cc2c1", "note": "[Example 282, (7R,10S)-5-(quinolin-6-yl)-5,6,7,8,9,1-hexahydro-7,10-epiminocyclohepta[b]indole]", "values": [{"measurement": "EC50", "setting": "[2]", "value": 3.21, "unit": "µM"}, {"measurement": "JC-1 max %", "setting": "[2]; percent maximal intensity in JC-1 ratio normalized to 10 μM dimebolin", "value": 228, "unit": "%"}, {"measurement": "Maximum Effect (of % 300 nM Dimebolin)", "setting": "[1]; [3]", "value": 115, "unit": "%"}, {"measurement": "Concentration (nM) at which the maximum effect was noted", "setting": "[1]; test compound concentration giving the maximum response", "value": 30, "unit": "nM"}]}
{"smiles": "O=c1cccnn1-c1ccc(-n2c3c(c4ccccc42)CN2CCC3CC2)cc1", "note": "[Example 287, 2-[4-(1,3,4,5-tetrahydro-6H-2,5-ethanoazepino[4,3-b]indol-6-yl)phenyl]pyridazin-3(2H)-one]", "values": [{"measurement": "Emax", "setting": "[2]; [4]", "value": 209, "unit": "%"}, {"measurement": "EC50", "setting": "[2]; Homo sapiens", "value": 1.53, "unit": "µM"}]}
